Holding throughout (type): functional
Details in all cases: read-out: ID50 (the source's name)

In test [1] the test system is WiDr. Kind of test: Inhibitory dose required against WIDR human tumor cell lines.
Test [2] concerns NCI-H226. Kind of test: Inhibitory dose required against H226 human tumor cell lines.
Test [3] concerns A498. Description: Inhibitory dose required against A498 human tumor cell lines.
For test [4], the system named is MCF7. Description: Inhibitory dose required against MCF-7 human tumor cell lines.
The subject of test [5] is IGROV-1. Description: Inhibitory dose required against IGROV human tumor cell lines.
The test system of test [6] is EVSA-T. Kind of test: Inhibitory dose required against EVSA-T human tumor cell lines.
Test [7] has as its system M19-MEL. Kind of test: Inhibitory dose required against M19 human tumor cell lines.

For the molecule `CC[C@@]1(OC(=O)OCc2ccc(NC(=O)[C@H](CCCCN)NC(=O)[C@H](Cc3ccccc3)NC(=O)[C@@H](C)N)cc2)C(=O)OCc2c1cc1n(c2=O)Cc2cc3c(N)cccc3nc2-1.Cl.Cl.Cl`, the IC50 in test [1] is 0.007 µg/mL; in test [2] it was 0.021 µg/mL; in test [3], 0.039 µg/mL; in test [4], 0.019 µg/mL; in test [5], 0.008 µg/mL; in test [6] it was 0.137 µg/mL. The IC50 in test [7] was 0.01 µg/mL.
`CC[C@@]1(OC(=O)OCc2ccc(NC(=O)[C@H](CCCCN)NC(=O)[C@H](Cc3ccccc3)NC(=O)[C@@H](C)N)cc2)C(=O)OCc2c1cc1n(c2=O)Cc2cc3ccccc3nc2-1.Cl.Cl`: the IC50 in test [1] amounted to 0.022 µg/mL; in test [2], 0.111 µg/mL; in test [3], 0.022 µg/mL; in test [4], 0.01 µg/mL; in test [5] it was 0.02 µg/mL; in test [6] it was 0.049 µg/mL. The IC50 in test [7] was found to be 0.219 µg/mL.
For the molecule `CC[C@@]1(O)C(=O)OCc2c1cc1n(c2=O)Cc2cc3c(N)cccc3nc2-1` [9-AMINOCAMPTOTHECIN], the IC50 was under 0.0032 µg/mL in test [1]; under 0.007 µg/mL in test [2]; under 0.01 µg/mL in test [3]; under 0.0032 µg/mL in test [4]; under 0.0032 µg/mL in test [5]; under 0.0032 µg/mL in test [6]. In addition, the IC50 in test [7] is under 0.024 µg/mL.
For `CC[C@@]1(O)C(=O)OCc2c1cc1n(c2=O)Cc2cc3ccccc3nc2-1` [CAMPTOTHECIN], the IC50 in test [1] was under 0.0032 µg/mL; in test [2], under 0.005 µg/mL; in test [3], under 0.0032 µg/mL; in test [4], under 0.0032 µg/mL; in test [5] it was under 0.0032 µg/mL; in test [6], under 0.0032 µg/mL. Besides, in test [7], the IC50 was under 0.013 µg/mL.
